Source: ChEMBL document CHEMBL3885861, “Open TG-GATES”

Organism: Rattus norvegicus
Test: Open TG-GATES - Regimen: Daily Repeat
Assay type: toxicity, organism-based, Sprague-Dawley
Parameters: regimen Daily Repeat, gender Male, age 6 weeks
Conditions: in vivo, iv, 0 mg/kg, route intravenous injection, dose level Control; for KIDNEY_L / KIDNEY_R / KIDNEY_TOTAL: tissue Kidney; for LIVER: tissue Liver
[1] = 72 h, tissue Plasma, time 3 day
[2] = […], tissue Plasma, time 14 day
[3] = […], tissue Plasma, time 28 day

## CARBOPLATIN
72 h, time 3 day
  TERMINAL_BW: 221.4 g
  KIDNEY_L: 1 g
  KIDNEY_R: 1 g
  KIDNEY_TOTAL: 2 g
72 h, tissue Blood, time 3 day
  APTT: 23.3 s
  Bas: 0%
  Eos: 0.8%
  Fbg: 298.8 mg/dL
  Hb: 13 g/dL
  Ht: 40.2%
  Lym: 80.4%
  MCHC: 32.2%
  MCV: 63.6 fL
  Mono: 2.6%
  Neu: 15.4%
  PT: 16.2 s
  Plat: 127.8 x10_4/uL
  RBC: 633 x10_4/ul
  Ret: 5.4%
  WBC: 112.5 x10_2/uL
[1]
  ALP: 1505 IU/L
  ALT: 38.6 IU/L
  AST: 67.6 IU/L
  BUN: 18 mg/dL
  CRE: 0.2 mg/dL
  DBIL: 0 mg/dL
  GLC: 182.4 mg/dL
  IP: 7.3 mg/dL
  K: 4.6 meq/L
  LDH: 206.4 IU/L
  PL: 150 mg/dL
  RALB: 3 g/dL
  TBIL: 0.004 mg/dL
  TC: 78.2 mg/dL
  TG: 103 mg/dL
  TP: 5.4 g/dL
  gamma-GTP: 1.6 IU/L
[…], time 7 day
  TERMINAL_BW: 254.4 g
  KIDNEY_L: 1.1 g
  KIDNEY_R: 1.2 g
  KIDNEY_TOTAL: 2.3 g
[…], time 14 day
  TERMINAL_BW: 298 g
  KIDNEY_L: 1.2 g
  KIDNEY_R: 1.2 g
  KIDNEY_TOTAL: 2.4 g
  LIVER: 13.1 g
[…], time 28 day
  TERMINAL_BW: 364.6 g
  KIDNEY_L: 1.3 g
  KIDNEY_R: 1.3 g
  KIDNEY_TOTAL: 2.7 g
  LIVER: 14.9 g
[…], tissue Blood, time 7 day
  APTT: 23.5 s
  Bas: 0%
  Eos: 0.8%
  Fbg: 312.2 mg/dL
  Ht: 40.5%
  Lym: 81.4%
  MCH: 20.6 pg
  MCHC: 32.4%
  MCV: 63.6 fL
  Mono: 2.4%
  Plat: 123.2 x10_4/uL
  RBC: 638.2 x10_4/ul
  Ret: 4.9%
  WBC: 120.2 x10_2/uL
[…], tissue Blood, time 14 day
  APTT: 25.2 s
  Bas: 0%
  Eos: 1%
  Fbg: 296.8 mg/dL
  Hb: 13.6 g/dL
  Ht: 40.5%
  Lym: 80.8%
  MCHC: 33.6%
  MCV: 60.3 fL
  Mono: 3.4%
  Plat: 128.4 x10_4/uL
  RBC: 672.4 x10_4/ul
  Ret: 3.6%
  WBC: 136.2 x10_2/uL
[…], tissue Blood, time 28 day
  APTT: 24.2 s
  Bas: 0%
  Eos: 1%
  Fbg: 308.6 mg/dL
  Ht: 42.1%
  Lym: 82.2%
  MCH: 19.9 pg
  MCV: 56.5 fL
  Mono: 2.6%
  PT: 16 s
  Plat: 108.9 x10_4/uL
  RBC: 746.2 x10_4/ul
  Ret: 2.1%
  WBC: 150.1 x10_2/uL
[…], tissue Plasma, time 7 day
  ALP: 1596.2 IU/L
  ALT: 39 IU/L
  AST: 70.6 IU/L
  BUN: 17.6 mg/dL
  CRE: 0.2 mg/dL
  DBIL: 0 mg/dL
  GLC: 182.6 mg/dL
  IP: 7.8 mg/dL
  K: 4.7 meq/L
  LDH: 172.8 IU/L
  PL: 144 mg/dL
  RALB: 3.1 g/dL
  TBIL: 0.002 mg/dL
  TC: 74.6 mg/dL
  TG: 87.8 mg/dL
  TP: 5.6 g/dL
  gamma-GTP: 2.2 IU/L
[2]
  ALP: 1124 IU/L
  ALT: 38.2 IU/L
  AST: 68.8 IU/L
  BUN: 17.2 mg/dL
  CRE: 0.2 mg/dL
  DBIL: 0 mg/dL
  GLC: 203 mg/dL
  IP: 6.9 mg/dL
  K: 4.3 meq/L
  LDH: 155.6 IU/L
  Na: 140.4 meq/L
  PL: 146 mg/dL
  RALB: 3 g/dL
  TBIL: 0.008 mg/dL
  TC: 73.8 mg/dL
  TG: 110.8 mg/dL
  TP: 5.7 g/dL
  gamma-GTP: 3.6 IU/L
[3]
  ALP: 1264.8 IU/L
  ALT: 43 IU/L
  AST: 76.2 IU/L
  BUN: 17.6 mg/dL
  CRE: 0.2 mg/dL
  DBIL: 0.002 mg/dL
  IP: 7.1 mg/dL
  K: 4.3 meq/L
  LDH: 202 IU/L
  PL: 138.6 mg/dL
  RALB: 3 g/dL
  TBIL: 0.01 mg/dL
  TC: 67.2 mg/dL
  TG: 113 mg/dL
  TP: 6 g/dL
